For 19 molecules, T/C results are on record in PubChem BioAssay AID248 (DTP/NCI, 2004).

This assay deals with L1210 leukemia ip in BDF1 mice, survival T/C. Nature of the assay: NCI In Vivo Anticancer Drug Screen. Data for tumor model L1210 Leukemia (intraperitoneal) in B6D2F1 (BDF1) mice. The following applies: endpoint: mean survival time, higher = longer survival. In outline:
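Transplantable tumor model; survival measured in treated vs vehicle control mice. Value = treated/control.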

Where [1] appears, read: dose: 25.0 mg/kg/injection, schedule: Q01DX009 (ip), vehicle: saline.
[2] abbreviates: dose: 25.0 mg/kg/injection, schedule: Q04DX003 (ip), vehicle: Klucel (hydroxypropylcellulose) (HPC).
The mark [3] stands for this setting: dose: 50.0 mg/kg/injection, schedule: Q01DX009 (ip), vehicle: saline.
Where [4] appears, read: dose: 50.0 mg/kg/injection, schedule: Q04DX003 (ip), vehicle: Klucel (hydroxypropylcellulose) (HPC).
Setting [5] is: dose: 100.0 mg/kg/injection, schedule: Q01DX009 (ip), vehicle: saline.
The mark [6] stands for this setting: dose: 100.0 mg/kg/injection, schedule: Q04DX003 (ip), vehicle: saline with Tween-80.
The mark [7] stands for this setting: dose: 200.0 mg/kg/injection, schedule: Q04DX003 (ip), vehicle: saline with Tween-80.
Setting [8] is: dose: 100.0 mg/kg/injection, schedule: Q04DX003 (ip), vehicle: Klucel (hydroxypropylcellulose) (HPC).
The mark [9] stands for this setting: dose: 100.0 mg/kg/injection, schedule: Q04DX002 (ip), vehicle: saline with Tween-80.
[10] abbreviates: dose: 200.0 mg/kg/injection, schedule: Q04DX002 (ip), vehicle: saline with Tween-80.
Where [11] appears, read: dose: 400.0 mg/kg/injection, schedule: Q04DX002 (ip), vehicle: saline with Tween-80.
The mark [12] stands for this setting: dose: 100.0 mg/kg/injection, schedule: Q01DX009 (ip), vehicle: other.
Where [13] appears, read: dose: 50.0 mg/kg/injection, schedule: Q01DX001 (ip), vehicle: Klucel (hydroxypropylcellulose) (HPC).
[14] abbreviates: dose: 100.0 mg/kg/injection, schedule: Q01DX001 (ip), vehicle: Klucel (hydroxypropylcellulose) (HPC).

Several values for one entry are separate records, joined by “and”; a condition that tells them apart may be missing. Equal values may be shown once. Inconclusive results and toxic doses are left out.

With `COC(CBr)c1ccccc1` (centres undefined), the T/C by setting is: (dose: 12.5 mg/kg/injection, schedule: Q04DX003 (ip), vehicle: Klucel (hydroxypropylcellulose) (HPC)) 98 % of control; under setting [1], 108 % of control; under setting [2], 101 % of control; under setting [3], 98 % of control; under setting [4], 96 % of control; under setting [5], 95 % of control.

`CC(=O)Nc1nc(C)c(CCCNS(=O)(=O)c2ccc([N+](=O)[O-])cc2)c(=O)[nH]1`: the T/C is, setting by setting: (dose: 100.0 mg/kg/injection, schedule: Q01DX009 (ip), vehicle: gum acacia) 90 % of control; (dose: 200.0 mg/kg/injection, schedule: Q01DX009 (ip), vehicle: gum acacia) 88 % of control; (dose: 400.0 mg/kg/injection, schedule: Q01DX009 (ip), vehicle: gum acacia) 87 % of control.

For `COc1ccc(C(=O)/C=C/c2ccc(OCc3ccccc3)c(OC)c2)cc1OC`, the T/C is 93 % of control (dose: 100.0 mg/kg/injection, schedule: Q04DX003 (ip), vehicle: water); 93 % of control (dose: 200.0 mg/kg/injection, schedule: Q04DX003 (ip), vehicle: water); 91 % of control (dose: 400.0 mg/kg/injection, schedule: Q04DX003 (ip), vehicle: water).

Take `OCC(O)COc1ccc(OCc2ccccc2)cc1` (centres undefined): the T/C is 94 % of control (dose: 12.5 mg/kg/injection, schedule: Q01DX009 (ip), vehicle: Klucel (hydroxypropylcellulose) (HPC)); 102 % of control (dose: 25.0 mg/kg/injection, schedule: Q01DX009 (ip), vehicle: Klucel (hydroxypropylcellulose) (HPC)); 93 % of control and 87 % of control (dose: 50.0 mg/kg/injection, schedule: Q01DX009 (ip), vehicle: Klucel (hydroxypropylcellulose) (HPC)).

Take `Cc1nc(N)[nH]c(=O)c1NC(=O)CCc1ccccc1`: the T/C is 105 % of control (dose: 6.25 mg/kg/injection, schedule: Q01DX001 (ip), vehicle: saline with Tween-80); 101 % of control (dose: 12.5 mg/kg/injection, schedule: Q01DX001 (ip), vehicle: saline with Tween-80); 98 % of control (dose: 25.0 mg/kg/injection, schedule: Q01DX001 (ip), vehicle: saline with Tween-80).

Consider `C=C1C(=O)O[C@H]2C1[C@H](OC(=O)/C(C)=C\COC(C)=O)C[C@]1(CO1)[C@@H]1[C@H](O)[C@H]3O[C@@]3(C)[C@@H]12` (some centres undefined), for which the T/C (dose: 25.0 mg/kg/injection, schedule: Q04DX002 (ip), vehicle: other) was 105 % of control; the T/C (dose: 50.0 mg/kg/injection, schedule: Q04DX002 (ip), vehicle: other) is 103 % of control; the T/C (dose: 100.0 mg/kg/injection, schedule: Q04DX002 (ip), vehicle: other) is 97 % of control and 100 % of control.

As to `N=c1c2c(C(N)=O)cn(C3OC(CO)C(O)C3O)c2ncn1O` (centres undefined), the T/C by setting is: (dose: 2.5 mg/kg/injection, schedule: Q01DX001 (ip), vehicle: saline with Tween-80) 122 % of control; (dose: 5.0 mg/kg/injection, schedule: Q01DX001 (ip), vehicle: saline with Tween-80) 117 % of control; (dose: 10.0 mg/kg/injection, schedule: Q01DX001 (ip), vehicle: saline with Tween-80) 123 % of control; (dose: 10.0 mg/kg/injection, schedule: Q01DX001 (ip), vehicle: saline) 153 % of control; (dose: 20.0 mg/kg/injection, schedule: Q01DX001 (ip), vehicle: saline) 180 % of control.

Turning to `c1ccc2c(c1)NC1CCN2C1` (centres undefined), the T/C runs as follows: under setting [6], 109 % of control; under setting [7], 103 % of control; (dose: 400.0 mg/kg/injection, schedule: Q04DX003 (ip), vehicle: saline with Tween-80) 97 % of control.

For the molecule `N=C(N)SC1c2cc(Cl)ccc2-c2c(Cl)cc(Cl)cc21` (centres undefined), the T/C is, setting by setting: (dose: 100.0 mg/kg/injection, schedule: Q01DX001 (ip), vehicle: carboxymethylcellulose (CMC)) 94 % of control; (dose: 200.0 mg/kg/injection, schedule: Q01DX001 (ip), vehicle: carboxymethylcellulose (CMC)) 92 % of control.

`OCCCNc1nc2c(Cl)cc(Cl)cc2c2ccccc12`: the T/C is 104 % of control (dose: 100.0 mg/kg/injection, schedule: Q01DX009 (ip), vehicle: Klucel (hydroxypropylcellulose) (HPC)); 107 % of control under setting [8]; 94 % of control (dose: 200.0 mg/kg/injection, schedule: Q01DX009 (ip), vehicle: Klucel (hydroxypropylcellulose) (HPC)); 108 % of control (dose: 200.0 mg/kg/injection, schedule: Q04DX003 (ip), vehicle: Klucel (hydroxypropylcellulose) (HPC)); 95 % of control (dose: 400.0 mg/kg/injection, schedule: Q04DX003 (ip), vehicle: Klucel (hydroxypropylcellulose) (HPC)).

As to `CCOc1ccccc1NC(=O)Oc1ccc(SC)c(C)c1`, the T/C by setting is: under setting [9], 113 % of control; under setting [10], 110 % of control; under setting [11], 103 % of control.

For the molecule `CC(Cc1ccc2c(c1)OCO2)C(C)Cc1ccc2c(c1)OCO2` (centres undefined), the T/C under setting [12] was 102 % of control; the T/C (dose: 100.0 mg/kg/injection, schedule: Q04DX003 (ip), vehicle: other) was 90 % of control; the T/C (dose: 200.0 mg/kg/injection, schedule: Q01DX009 (ip), vehicle: other) was 109 % of control; the T/C (dose: 200.0 mg/kg/injection, schedule: Q04DX003 (ip), vehicle: other) was 102 % of control; the T/C (dose: 400.0 mg/kg/injection, schedule: Q01DX009 (ip), vehicle: other) was 91 % of control; the T/C (dose: 400.0 mg/kg/injection, schedule: Q04DX003 (ip), vehicle: other) is 90 % of control.

In the case of `O=C(O)C(F)(F)C(F)(Cl)C(F)(F)C(F)(Cl)C(F)(F)C(F)(Cl)C(F)(F)Cl` (centres undefined), the T/C is 96 % of control and 90 % of control (dose: 100.0 mg/kg/injection, schedule: Q01DX001 (ip), vehicle: saline); 110 % of control and 93 % of control (dose: 200.0 mg/kg/injection, schedule: Q01DX001 (ip), vehicle: saline); 107 % of control (dose: 400.0 mg/kg/injection, schedule: Q01DX001 (ip), vehicle: saline).

Consider `CC(=O)Nc1c2ccccc2nc2c1c(C)c(C)c1ccccc12`, for which the T/C under setting [13] was 87 % of control; the T/C under setting [14] was 89 % of control; the T/C (dose: 200.0 mg/kg/injection, schedule: Q01DX001 (ip), vehicle: Klucel (hydroxypropylcellulose) (HPC)) was 94 % of control; the T/C (dose: 400.0 mg/kg/injection, schedule: Q01DX001 (ip), vehicle: Klucel (hydroxypropylcellulose) (HPC)) is 91 % of control.

On to `O=C(Nc1ccc2cc(S(=O)(=O)O)ccc2c1)c1ccc(N=Nc2c(S(=O)(=O)O)cc3cc(S(=O)(=O)O)cc(NC(=O)c4ccccc4)c3c2O)cc1`, for which the T/C was 93 % of control (dose: 25.0 mg/kg/injection, schedule: Q01DX001 (ip), vehicle: Klucel (hydroxypropylcellulose) (HPC)); 108 % of control (dose: 25.0 mg/kg/injection, schedule: Q01DX009 (ip), vehicle: other); 95 % of control under setting [2]; 88 % of control under setting [13]; 102 % of control (dose: 50.0 mg/kg/injection, schedule: Q01DX009 (ip), vehicle: other); 98 % of control under setting [4]. For the same molecule, the T/C is 92 % of control under setting [14]; 97 % of control under setting [12]; 101 % of control under setting [8]; 104 % of control under setting [6]; 89 % of control (dose: 150.0 mg/kg/injection, schedule: Q01DX009 (ip), vehicle: other); 91 % of control under setting [7].

Regarding `CC(C)CCCC(C)CCCl` (centres undefined), the T/C by setting is: under setting [9], 93 % of control; under setting [10], 86 % of control; under setting [11], 107 % of control.

In the case of `CC1(C)N=C(N)N=C(N)N1c1ccc(OCCNC(=O)Nc2ccc(S(=O)(=O)F)cc2)c(Cl)c1`, the T/C runs as follows: under setting [1], 102 % of control; under setting [3], 105 % of control; under setting [5], 113 % of control.

`CCCCNC(=S)NN=C(N)N`: the T/C is 96 % of control under setting [9], 100 % of control under setting [10] and 92 % of control under setting [11].

As to `CCN(CCC[N+](C)(C)C)C(=O)C(c1ccccc1)c1ccccc1`, the T/C (dose: 100.0 mg/kg/injection, schedule: Q04DX003 (ip), vehicle: saline) was 93 % of control.
